According to US5270204A, “Covalent angiogenin/RNase hybrids” (The President and Fellows of Harvard College, priority 1992, dated 1993):

T1: bovine pancreatic RNase A (Bos taurus, UniProt P61823)
T1 sequence (P61823 27-150): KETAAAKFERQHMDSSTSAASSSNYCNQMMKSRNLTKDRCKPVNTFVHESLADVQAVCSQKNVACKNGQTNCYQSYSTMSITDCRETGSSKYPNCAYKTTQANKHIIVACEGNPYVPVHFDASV

B1: ARH-III, angiogenin/RNase hybrid: human angiogenin with residues 8-22 replaced by residues 7-21 of bovine pancreatic RNase A (Homo sapiens) (protein)
chain: QDNSRYTKFERQHMDSSTSAASDRYCESIMRRRGLTSPCKDINTFIHGNKRSIKAICENKNGNPHRENLRISKSSFQVTTCKLHGGSPWPPCQYRATAGFRNVVVACENGLPVHLDQSIFRRP
notes: the coding region for Met-(-1) through Asn-3; fragment C consisted of the coding region from Arg-24 through Pro-123; made in house; host or cells: E. coli W3110 (plasmid pARH-III)

Legend:
[1] = target: human angiogenin, wild type (Homo sapiens, UniProt P03950); details: 30 mM Mes, 30 mM NaCl, pH 6.0 at 37° C.; cited from earlier work
Chain of human angiogenin, wild type (P03950 25-147): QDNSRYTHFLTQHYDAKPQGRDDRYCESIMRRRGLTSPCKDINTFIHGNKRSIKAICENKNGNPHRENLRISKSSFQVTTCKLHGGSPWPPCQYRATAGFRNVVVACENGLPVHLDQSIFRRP

[2] = target: T1, bovine pancreatic RNase A; details: spectrophotometric assay, 30 mM Mes, 30 mM NaCl, pH 6.0 at 25° C.; cited from earlier work
[3] = substrate: Nc1ccn([C@@H]2O[C@H](CO)[C@@H](OP(=O)(O)OC[C@H]3O[C@@H](n4cnc5c(=O)[nH]c(N)nc54)[C@H](O)[C@@H]3O)[C@H]2O)c(=O)n1; experiment: Activity toward dinucleotide (3',5') phosphates, HPLC quantitation method; format: biochemical, human; details: other: ARH-III, 30 mM Mes, 30 mM NaCl, pH 6.0 at 37° C., 0.1 mM substrate, 2.8 μM ARH-III
Description: (§1) Activity toward dinucleotide (3', 5') phosphates was determined by an HPLC quantitation method as described by Shapiro et al., 1988, Anal. Biochem. 175: 450-461; Harper and Vallee, 1989, Biochemistry 28: 1875-1884. Reaction mixtures (30 μL) contained 0.1 mM substrate, 2.8 μM ARH-III and were incubated for 4-24 hours at 37° C.
(§2) The enzymatic activities of ARH-III toward tRNA, 18S and 28S rRNA, and dinucleotide substrates were very similar to those of angiogenin. […] Angiogenin and RNase A (obtained from Cooper Biochemicals) had maximal activities under these assay conditions at pH ~6.8 and ~8.1, respectively, consistent with previous results obtained by Lee & Vallee, 1989b, Biochem. and Biophys. Res. Commun. 161: 121-126. It is known that angiogenin catalyzes the cleavage of dinucleotide substrates, but at rates 5-6 orders of magnitude lower than those observed for RNase A (Shapiro et al., 1988, Anal. Biochem. 175: 450-461; Harper & Vallee, 1989, Biochemistry 28: 1875-1884). Its specificity is different from that of RNase A based on kcat /Km values for 4 different dinucleotides. In all cases, kcat /Km values were within 30% of those observed for angiogenin, and the relative specificity for the substrates was unchanged.
(§3) ^a Assays with ARHIII and angiogenin were performed in 30 mM Mes, 30
(§4) mM NaCl, pH 6.0 at 37° C.

[4] = substrate: Nc1ccn([C@@H]2O[C@H](CO)[C@@H](OP(=O)(O)OC[C@H]3O[C@@H](n4cnc5c(N)ncnc54)[C@H](O)[C@@H]3O)[C@H]2O)c(=O)n1; experiment: as above; format: biochemical, human; details: other: ARH-III, 30 mM Mes, 30 mM NaCl, pH 6.0 at 37° C., 0.1 mM substrate, 2.8 μM ARH-III
Description: as §1, §2, §3, §4

[5] = substrate: Nc1nc2c(ncn2[C@@H]2O[C@H](COP(=O)(O)O[C@H]3[C@@H](O)[C@H](n4ccc(=O)[nH]c4=O)O[C@@H]3CO)[C@@H](O)[C@H]2O)c(=O)[nH]1; experiment: as above; format: biochemical, human; details: other: ARH-III, 30 mM Mes, 30 mM NaCl, pH 6.0 at 37° C., 0.1 mM substrate, 2.8 μM ARH-III
Description: as §1, §2, §3, §4

[6] = substrate: Nc1ncnc2c1ncn2[C@@H]1O[C@H](COP(=O)(O)O[C@H]2[C@@H](O)[C@H](n3ccc(=O)[nH]c3=O)O[C@@H]2CO)[C@@H](O)[C@H]1O; experiment: as above; format: biochemical, human; details: other: ARH-III, 30 mM Mes, 30 mM NaCl, pH 6.0 at 37° C., 0.1 mM substrate, 2.8 μM ARH-III
Description: as §1, §2, §3, §4

Row | Molecule | kcat/Km [1] | kcat/Km [2] | kcat/Km [3] | kcat/Km [4] | kcat/Km [5] | kcat/Km [6]
1 | Nc1nc2c(ncn2[C@@H]2O[C@H](COP(=O)(O)O[C@H]3[C@@H](O)[C@H](n4ccc(=O)[nH]c4=O)O[C@@H]3CO)[C@@H](O)[C@H]2O)c(=O)[nH]1 [UpG, uridylyl-(3'-5') guanosine] | 0.4 M⁻¹ s⁻¹ | 180000 M⁻¹ s⁻¹ |  |  |  | 
2 | Nc1ncnc2c1ncn2[C@@H]1O[C@H](COP(=O)(O)O[C@H]2[C@@H](O)[C@H](n3ccc(=O)[nH]c3=O)O[C@@H]2CO)[C@@H](O)[C@H]1O [UpA, uridylyl-(3'-5') adenosine] | 1.1 M⁻¹ s⁻¹ | 4e+06 M⁻¹ s⁻¹ |  |  |  | 
3 | Nc1ccn([C@@H]2O[C@H](CO)[C@@H](OP(=O)(O)OC[C@H]3O[C@@H](n4cnc5c(=O)[nH]c(N)nc54)[C@H](O)[C@@H]3O)[C@H]2O)c(=O)n1 [CpG, cytidylyl-(3'-5') guanosine] | 4.0 M⁻¹ s⁻¹ | 510000 M⁻¹ s⁻¹ |  |  |  | 
4 | Nc1ccn([C@@H]2O[C@H](CO)[C@@H](OP(=O)(O)OC[C@H]3O[C@@H](n4cnc5c(N)ncnc54)[C@H](O)[C@@H]3O)[C@H]2O)c(=O)n1 [CpA, cytidylyl-(3'-5') adenosine] | 12 M⁻¹ s⁻¹ | 6e+06 M⁻¹ s⁻¹ |  |  |  | 
5 | B1 |  |  | 3.4 M⁻¹ s⁻¹ | 13 M⁻¹ s⁻¹ | 0.4 M⁻¹ s⁻¹ | 0.8 M⁻¹ s⁻¹
